The structures appear in SMILES notation. In brackets after ≈: the same amount, converted by molar mass.

The nature of test [1]: Antioxidant activity assessed as inhibition of ABTS radical production after 10 min by spectrophotometric analysis. The format is functional.
In test [2] the test system is Radical scavenging activity. Briefly: Antioxidant activity assessed as inhibition of DPPH radical production after 30 min by spectrophotometric analysis. In kind it is functional. A general note: Loss of DPPH colour is used to gauge radical scavenging.

The IC50 is the concentration needed to halve the response being measured. In the case of `COc1c(O)cc([C@H]2Oc3cc(O)cc(O)c3C[C@@H]2O)cc1O` [4'-O-METHYL-GALLOCATECHIN], the half-inhibitory concentration (IC50) in test [1] stood at 0.78 µg/mL (≈ 2.44 µM); in test [2], 2.57 µg/mL (≈ 8.02 µM).

For `Oc1cc(O)c2c(c1)O[C@H](c1ccc(O)c(O)c1)[C@H](O)C2` [(-)-EPICATECHIN], the results for the half-inhibitory concentration (IC50) in test [1] and in test [2] were 1.83 µg/mL (≈ 6.3 µM) and 1.61 µg/mL (≈ 5.55 µM), respectively.

Take `Cc1cc(C(C)(C)C)c(O)c(C(C)(C)C)c1` [BUTYLATED HYDROXYTOLUENE]: the IC50 was 4.555 µg/mL (≈ 20.7 µM) in test [1] and 18.79 µg/mL (≈ 85.3 µM) in test [2].

Take `O=C(O)/C=C/c1ccc(O)c(O)c1` [CAFFEIC ACID]: the figures for the IC50 in test [1] and in test [2] were 1.54 µg/mL (≈ 8.55 µM) and 1.8 µg/mL (≈ 9.99 µM), respectively.

For the compound `Oc1cc(O)c2c(c1)O[C@H](c1ccc(O)c(O)c1)[C@@H](O)C2` [CIANIDANOL], the IC50 in test [1] worked out at 0.56 µg/mL (≈ 1.93 µM); in test [2] it was 1.4 µg/mL (≈ 4.82 µM).

With `O=c1c(O)c(-c2ccc(O)cc2)oc2cc(O)cc(O)c12` [KAEMPFEROL], the IC50 in test [1] is 1.03 µg/mL (≈ 3.6 µM); in test [2] it was 2.51 µg/mL (≈ 8.77 µM).

`CCCOC(=O)c1cc(O)c(O)c(O)c1` [PROPYL GALLATE]: the results for the concentration for half-maximal inhibition (IC50) in test [1] and in test [2] were 0.885 µg/mL (≈ 4.17 µM) and 0.94 µg/mL (≈ 4.43 µM), respectively.

Take `O=C(O)c1ccc(O)c(O)c1` [PROTOCATECHUIC ACID]: the figures for the half-maximal inhibitory concentration (IC50) in test [1] and in test [2] were 2.47 µg/mL (≈ 16 µM) and “ND(Insoluble)”, respectively.

For the origin of these results see ChEMBL document CHEMBL3045898, “Antioxidant phenolic compounds and flavonoids of Mitragyna rotundifolia (Roxb.) Kuntze in vitro” (Med Chem Res, 2010).
